Paper PMC8429728, “TNK1 is a ubiquitin-binding and 14-3-3-regulated kinase that can be targeted to block tumor growth” (Nature Communications, 2021)
Where two headings read alike, the source gives them in different places.

How the values were obtained:
Assay in all cases: biochemical
Design in all cases: Reaction Biology 371-kinase panel at Km ATP, per cent enzyme activity relative to DMSO, single dose in duplicate
[1] = biological target: T1, RSK1 (Homo sapiens, UniProt Q15418); conditions: duplicate measurements, Km ATP
T1 construct: gene RPS6KA1
Procedure, shortened: (§1)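 Activity of each kinase, normalised to DMSO-treated controls, served as the read-out. The inhibitor was tested at 300 nM against 371 kinases in vitro. Curves fitted by variable-slope sigmoidal dose-response, constrained to a bottom of 0, gave IC50.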

[2] = biological target: T2, PKCg (Homo sapiens, UniProt P05129); conditions: duplicate measurements, Km ATP
T2 construct: gene PRKCG
Procedure, shortened: as §1

[3] = biological target: CLK3 (Homo sapiens, UniProt P49761); conditions: duplicate measurements, Km ATP
Procedure, shortened: as §1

[4] = biological target: CDK17/cyclin Y (PCTK2) (Homo sapiens, UniProt Q00537); conditions: duplicate measurements, Km ATP; read-out: % Enzyme Activity (relative to DMSO controls) / TP-0005801 (0.3µM) / Data 1
Procedure, shortened: as §1

[5] = biological target: T3, MEK1 (Homo sapiens, UniProt Q02750); conditions: duplicate measurements, Km ATP
T3 construct: gene MAP2K1
Procedure, shortened: as §1

[6] = biological target: MLK2/MAP3K10 (Homo sapiens, UniProt Q02779); conditions: duplicate measurements, Km ATP
Procedure, shortened: as §1

[7] = biological target: ERBB4/HER4 (Homo sapiens, UniProt Q15303); conditions: duplicate measurements, Km ATP
Procedure, shortened: as §1

[8] = biological target: T4, PKCiota (Homo sapiens, UniProt P41743); conditions: duplicate measurements, Km ATP
T4 construct: gene PRKCI
Procedure, shortened: as §1

[9] = biological target: SNRK (Homo sapiens, UniProt Q9NRH2); conditions: duplicate measurements, Km ATP
Procedure, shortened: as §1

[10] = biological target: MAK (Homo sapiens, UniProt P20794); conditions: duplicate measurements, Km ATP
Procedure, shortened: as §1

[11] = biological target: T5, LYN B (Homo sapiens, UniProt P07948); conditions: duplicate measurements, Km ATP
T5 construct: isoform B
Procedure, shortened: as §1

[12] = biological target: DAPK2 (Homo sapiens, UniProt Q9UIK4); conditions: duplicate measurements, Km ATP
Procedure, shortened: as §1

[13] = biological target: T6, PYK2 (Homo sapiens, UniProt Q14289); conditions: duplicate measurements, Km ATP
T6 construct: gene PTK2B
Procedure, shortened: as §1

[14] = biological target: ALK6/BMPR1B (Homo sapiens, UniProt O00238); conditions: duplicate measurements, Km ATP
Procedure, shortened: as §1

[15] = biological target: SGK1 (Homo sapiens, UniProt O00141); conditions: duplicate measurements, Km ATP
Procedure, shortened: as §1

[16] = biological target: FLT3 (Homo sapiens, UniProt P36888); conditions: duplicate measurements, Km ATP
Procedure, shortened: as §1

[17] = biological target: T7, TRKA (Homo sapiens, UniProt P04629); conditions: duplicate measurements, Km ATP
T7 construct: gene NTRK1
Procedure, shortened: as §1

[18] = biological target: KSR2 (Homo sapiens, UniProt Q6VAB6); conditions: duplicate measurements, Km ATP
Procedure, shortened: as §1

[19] = biological target: ITK (Homo sapiens, UniProt Q08881); conditions: duplicate measurements, Km ATP
Procedure, shortened: as §1

[20] = biological target: T8, MEKK2 (Homo sapiens, UniProt Q9Y2U5); conditions: duplicate measurements, Km ATP
T8 construct: gene MAP3K2
Procedure, shortened: as §1

[21] = read-out: % Enzyme Activity (relative to DMSO controls) / TP-0005801 (0.3µM) / Data 1
[22] = read-out: % Enzyme Activity (relative to DMSO controls) / TP-0005801 (0.3µM) / Data 2

T5 sequence (P07948 whole entry, canonical isoform): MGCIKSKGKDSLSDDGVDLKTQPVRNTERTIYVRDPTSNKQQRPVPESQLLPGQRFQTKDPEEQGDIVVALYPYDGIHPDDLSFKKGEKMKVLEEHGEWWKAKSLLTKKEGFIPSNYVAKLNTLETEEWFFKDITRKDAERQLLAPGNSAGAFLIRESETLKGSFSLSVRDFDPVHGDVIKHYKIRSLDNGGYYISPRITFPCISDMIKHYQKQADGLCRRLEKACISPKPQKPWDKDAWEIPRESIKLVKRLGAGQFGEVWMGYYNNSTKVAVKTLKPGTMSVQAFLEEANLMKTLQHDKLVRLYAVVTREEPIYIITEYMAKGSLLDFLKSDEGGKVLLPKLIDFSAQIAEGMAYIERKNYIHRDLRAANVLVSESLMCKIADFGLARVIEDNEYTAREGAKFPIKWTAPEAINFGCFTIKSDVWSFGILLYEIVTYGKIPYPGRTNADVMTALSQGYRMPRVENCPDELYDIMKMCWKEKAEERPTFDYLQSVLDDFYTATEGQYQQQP
Sequence of FLT3 (P36888 whole entry): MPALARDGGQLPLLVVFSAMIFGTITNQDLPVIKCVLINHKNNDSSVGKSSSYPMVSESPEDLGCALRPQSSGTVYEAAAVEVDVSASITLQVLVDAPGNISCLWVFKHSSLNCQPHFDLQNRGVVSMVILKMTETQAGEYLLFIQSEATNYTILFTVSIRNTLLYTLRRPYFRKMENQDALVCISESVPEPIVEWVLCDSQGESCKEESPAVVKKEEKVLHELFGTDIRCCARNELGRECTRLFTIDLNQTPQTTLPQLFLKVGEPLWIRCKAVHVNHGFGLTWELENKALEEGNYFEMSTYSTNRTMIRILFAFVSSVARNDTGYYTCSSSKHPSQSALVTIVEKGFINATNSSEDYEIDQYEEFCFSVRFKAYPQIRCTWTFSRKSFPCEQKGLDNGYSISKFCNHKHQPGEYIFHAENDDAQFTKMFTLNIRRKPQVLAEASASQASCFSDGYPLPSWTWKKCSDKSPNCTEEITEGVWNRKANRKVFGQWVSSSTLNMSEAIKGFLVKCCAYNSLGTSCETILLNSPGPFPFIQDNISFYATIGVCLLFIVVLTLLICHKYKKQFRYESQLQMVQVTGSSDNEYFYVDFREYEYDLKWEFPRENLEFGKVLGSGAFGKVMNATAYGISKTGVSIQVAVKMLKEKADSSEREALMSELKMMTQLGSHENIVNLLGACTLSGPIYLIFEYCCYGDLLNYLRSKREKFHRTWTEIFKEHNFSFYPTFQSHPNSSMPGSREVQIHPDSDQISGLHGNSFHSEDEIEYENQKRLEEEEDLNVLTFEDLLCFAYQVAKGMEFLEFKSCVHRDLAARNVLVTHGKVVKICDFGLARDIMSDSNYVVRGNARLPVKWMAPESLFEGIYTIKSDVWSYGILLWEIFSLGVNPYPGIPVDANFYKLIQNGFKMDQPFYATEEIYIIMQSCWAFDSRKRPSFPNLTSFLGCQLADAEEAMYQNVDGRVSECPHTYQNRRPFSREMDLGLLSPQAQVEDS
T7 sequence (P04629 whole entry): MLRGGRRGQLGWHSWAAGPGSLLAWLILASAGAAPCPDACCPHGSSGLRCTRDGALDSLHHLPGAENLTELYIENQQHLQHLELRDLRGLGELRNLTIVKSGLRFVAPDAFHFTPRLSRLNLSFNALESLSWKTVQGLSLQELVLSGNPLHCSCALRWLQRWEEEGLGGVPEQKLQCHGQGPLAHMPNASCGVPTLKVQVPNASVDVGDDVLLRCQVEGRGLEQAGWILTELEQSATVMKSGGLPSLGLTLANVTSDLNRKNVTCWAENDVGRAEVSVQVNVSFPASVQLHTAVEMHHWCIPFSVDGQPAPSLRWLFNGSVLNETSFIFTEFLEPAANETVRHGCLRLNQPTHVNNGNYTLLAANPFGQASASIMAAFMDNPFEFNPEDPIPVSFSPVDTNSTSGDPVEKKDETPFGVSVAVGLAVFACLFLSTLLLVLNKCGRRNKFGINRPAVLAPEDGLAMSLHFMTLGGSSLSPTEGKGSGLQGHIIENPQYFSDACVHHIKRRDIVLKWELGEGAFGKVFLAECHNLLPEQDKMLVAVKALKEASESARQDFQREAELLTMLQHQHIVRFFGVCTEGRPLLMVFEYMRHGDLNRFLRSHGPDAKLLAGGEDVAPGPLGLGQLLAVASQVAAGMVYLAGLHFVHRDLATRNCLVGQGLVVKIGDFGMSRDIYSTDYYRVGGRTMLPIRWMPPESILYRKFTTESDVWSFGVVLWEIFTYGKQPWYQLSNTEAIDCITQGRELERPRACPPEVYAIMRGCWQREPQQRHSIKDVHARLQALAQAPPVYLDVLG
Sequence of SNRK (Q9NRH2 whole entry): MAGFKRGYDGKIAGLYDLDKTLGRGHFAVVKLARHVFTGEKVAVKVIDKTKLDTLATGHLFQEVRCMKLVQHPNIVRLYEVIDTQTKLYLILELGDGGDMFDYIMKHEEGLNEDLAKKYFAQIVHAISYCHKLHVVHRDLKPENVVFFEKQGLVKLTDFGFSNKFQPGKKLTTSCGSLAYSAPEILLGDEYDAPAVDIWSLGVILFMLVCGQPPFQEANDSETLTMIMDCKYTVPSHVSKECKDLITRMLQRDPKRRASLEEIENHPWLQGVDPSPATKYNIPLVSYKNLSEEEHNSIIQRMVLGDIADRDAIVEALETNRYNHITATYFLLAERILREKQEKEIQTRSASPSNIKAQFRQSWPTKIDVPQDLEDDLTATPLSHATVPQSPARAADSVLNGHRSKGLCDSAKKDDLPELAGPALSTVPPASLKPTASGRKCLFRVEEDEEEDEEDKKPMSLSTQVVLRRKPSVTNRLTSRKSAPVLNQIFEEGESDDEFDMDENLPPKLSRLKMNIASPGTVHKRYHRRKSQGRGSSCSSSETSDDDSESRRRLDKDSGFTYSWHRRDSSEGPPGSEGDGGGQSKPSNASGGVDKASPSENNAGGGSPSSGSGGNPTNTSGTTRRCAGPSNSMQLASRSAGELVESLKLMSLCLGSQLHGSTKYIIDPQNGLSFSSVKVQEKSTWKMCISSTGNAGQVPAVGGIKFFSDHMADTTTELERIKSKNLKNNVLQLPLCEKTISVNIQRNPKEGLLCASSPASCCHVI
Sequence of DAPK2 (Q9UIK4 whole entry): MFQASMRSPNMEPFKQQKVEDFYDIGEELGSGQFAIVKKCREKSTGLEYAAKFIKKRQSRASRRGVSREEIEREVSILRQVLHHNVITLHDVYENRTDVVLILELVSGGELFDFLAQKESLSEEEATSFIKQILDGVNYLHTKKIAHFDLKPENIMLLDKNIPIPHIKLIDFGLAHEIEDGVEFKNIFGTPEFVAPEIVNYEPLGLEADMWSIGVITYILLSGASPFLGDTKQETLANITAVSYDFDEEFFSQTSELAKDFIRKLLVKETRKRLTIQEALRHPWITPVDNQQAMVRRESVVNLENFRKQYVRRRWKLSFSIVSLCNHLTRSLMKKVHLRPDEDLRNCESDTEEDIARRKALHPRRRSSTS
T3 sequence (Q02750 whole entry): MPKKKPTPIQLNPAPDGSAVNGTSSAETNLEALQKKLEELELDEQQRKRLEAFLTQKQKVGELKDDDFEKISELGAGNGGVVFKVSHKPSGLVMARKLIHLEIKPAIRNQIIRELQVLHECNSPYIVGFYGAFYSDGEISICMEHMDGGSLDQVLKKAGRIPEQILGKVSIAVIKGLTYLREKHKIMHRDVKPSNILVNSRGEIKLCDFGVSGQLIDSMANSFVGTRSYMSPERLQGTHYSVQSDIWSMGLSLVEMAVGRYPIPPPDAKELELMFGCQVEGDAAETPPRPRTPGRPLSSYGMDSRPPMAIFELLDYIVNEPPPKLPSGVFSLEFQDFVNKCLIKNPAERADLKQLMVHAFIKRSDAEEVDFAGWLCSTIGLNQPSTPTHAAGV
Sequence of ITK (Q08881 whole entry): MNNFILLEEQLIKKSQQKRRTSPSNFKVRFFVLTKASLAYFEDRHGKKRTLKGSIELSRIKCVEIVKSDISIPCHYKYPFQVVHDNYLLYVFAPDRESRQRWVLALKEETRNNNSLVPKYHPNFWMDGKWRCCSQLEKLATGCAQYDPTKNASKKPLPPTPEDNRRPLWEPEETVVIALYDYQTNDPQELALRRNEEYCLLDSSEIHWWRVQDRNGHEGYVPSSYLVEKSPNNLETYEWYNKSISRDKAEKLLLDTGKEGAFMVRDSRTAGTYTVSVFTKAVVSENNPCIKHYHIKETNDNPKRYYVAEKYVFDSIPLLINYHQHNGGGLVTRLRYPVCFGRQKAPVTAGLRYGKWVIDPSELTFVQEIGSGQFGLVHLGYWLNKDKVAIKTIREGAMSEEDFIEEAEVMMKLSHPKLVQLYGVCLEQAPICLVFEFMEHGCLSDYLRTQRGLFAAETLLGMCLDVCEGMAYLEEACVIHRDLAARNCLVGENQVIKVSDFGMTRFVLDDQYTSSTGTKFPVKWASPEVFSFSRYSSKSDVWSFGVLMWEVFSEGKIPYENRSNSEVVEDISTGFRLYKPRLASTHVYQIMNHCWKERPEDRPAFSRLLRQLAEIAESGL
Sequence of CLK3 (P49761 whole entry): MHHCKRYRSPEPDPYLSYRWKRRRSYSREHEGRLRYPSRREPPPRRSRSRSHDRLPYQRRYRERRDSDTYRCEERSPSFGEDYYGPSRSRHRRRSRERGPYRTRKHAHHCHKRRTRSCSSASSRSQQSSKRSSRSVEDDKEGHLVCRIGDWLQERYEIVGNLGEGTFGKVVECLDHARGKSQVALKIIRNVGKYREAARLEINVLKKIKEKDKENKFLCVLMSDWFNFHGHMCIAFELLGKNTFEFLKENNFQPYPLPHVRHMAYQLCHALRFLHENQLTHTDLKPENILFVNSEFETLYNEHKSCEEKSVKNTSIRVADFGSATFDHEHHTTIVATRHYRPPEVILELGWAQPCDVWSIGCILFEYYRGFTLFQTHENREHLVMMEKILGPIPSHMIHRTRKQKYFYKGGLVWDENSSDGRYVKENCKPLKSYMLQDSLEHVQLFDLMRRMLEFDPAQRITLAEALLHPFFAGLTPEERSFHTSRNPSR

Work on COc1cc(N2CCN(C)CC2)c(C)cc1Nc1ncc(Br)c(Nc2cccnc2N(C)C)n1 [TP-5801] yielded a remaining activity at 0.3 µM [1, 21] of 76.2%, a remaining activity at 0.3 µM [1, 22] of 74.2% and a remaining activity at 0.3 µM [2, 21] of 115%. The remaining activity at 0.3 µM [2, 22] was 107%, the remaining activity at 0.3 µM [3, 21] was 79.1% and the remaining activity at 0.3 µM [3, 22] was 77.3%. For the same compound, the remaining activity at 0.3 µM [4] was 101%, the remaining activity at 0.3 µM [5, 21] was 95.7% and the remaining activity at 0.3 µM [5, 22] was 95.5%. The remaining activity at 0.3 µM [6, 21] was 87%, the remaining activity at 0.3 µM [6, 22] was 85.9% and the remaining activity at 0.3 µM [7, 21] was 103%. It also gave a remaining activity at 0.3 µM [7, 22] of 102%, a remaining activity at 0.3 µM [8, 21] of 101% and a remaining activity at 0.3 µM [8, 22] of 99.1%. The remaining activity at 0.3 µM [9, 21] was 98.8%, the remaining activity at 0.3 µM [9, 22] was 98.6% and the remaining activity at 0.3 µM [10, 21] was 98.4%. It also gave a remaining activity at 0.3 µM [10, 22] of 94.1%, a remaining activity at 0.3 µM [11, 21] of 99.5% and a remaining activity at 0.3 µM [11, 22] of 99.4%. The remaining activity at 0.3 µM [12, 21] was 95.1%, the remaining activity at 0.3 µM [12, 22] was 93.2% and the remaining activity at 0.3 µM [13, 21] was 23.7%. The remaining activity at 0.3 µM [13, 22] was 23.5%, the remaining activity at 0.3 µM [14, 21] was 97.9% and the remaining activity at 0.3 µM [14, 22] was 97.6%. The remaining activity at 0.3 µM [15, 21] was 91.7%, the remaining activity at 0.3 µM [15, 22] was 91% and the remaining activity at 0.3 µM [16, 21] was 3.9%. The remaining activity at 0.3 µM [16, 22] was 3.79%, the remaining activity at 0.3 µM [17, 21] was 93.3% and the remaining activity at 0.3 µM [17, 22] was 82.4%. For the same compound, the remaining activity at 0.3 µM [18, 21] was 96.9%, the remaining activity at 0.3 µM [18, 22] was 94.2% and the remaining activity at 0.3 µM [19, 21] was 107%. The remaining activity at 0.3 µM [19, 22] was 103%, the remaining activity at 0.3 µM [20, 21] was 86.8% and the remaining activity at 0.3 µM [20, 22] was 81%.
